Assay results as given in patent US10966995B2, “Use of secoisolariciresinol diglucosides (SDGS) and related compounds for protection against radiation and chemical damage” (THE TRUSTEES OF THE UNIVERSITY OF PENNSYLVANIA, priority 2014, dated 2021).

What was measured:
[1] = test system: mouse peritoneal macrophages; experiment: Asbestos-exposed peritoneal macrophages: oxidative/nitrosative stress and cytokine secretion; type: cell-based; details: 20 μg/cm^2 asbestos; 25 and 50 μM SDG 3-8 hours post exposure; p<0.05
Experimental: To test the hypothesis that the flaxseed lignan SDG will decrease asbestos-induced inflammation, and oxidative and nitrosative stress, mouse peritoneal macrophages were exposed to varying concentrations of crocidolite asbestos fibers ([…]). At variable times post asbestos exposure (3, 4, 6, and 8 hours), cells were incubated with SDG (50 μM) and supernatants collected 24 hours later to detect inflammatory cytokine secretion and nitrosative/oxidative stress (FIG. 49).
(§1) SDG given to macrophages several hours post exposure to asbestos decreases oxidative stress (FIGS. 52A-52B). Female C57/Bl6 mice were injected with 2 mL of thioglycollate and peritoneal macrophages harvested after 3 days. 2 million cells per well were plated in a 6 well plate and exposed to 20 μg/cm^2 asbestos. Cells were treated with 25 or 50 μM SDG (synthetic SDG) 3, 4, 6, or 8 hours post-asbestos exposure. Cells were harvested 24 hours post-asbestos exposure. Analysis performed on frozen supernatant samples.
as §1, with “Given” for “given”, “Macrophages Several Hours Post Exposure to Asbestos Decreases Nitrosative Stress (FIGS. 53A-53B). To evaluate of SDG in blunting nitrosative stress in cells” for “macrophages several hours”, “post” for “post exposure to”, “exposure, female” for “decreases oxidative stress (FIGS. 52A-52B). Female”
(§2) SDG Given to Macrophages Several Hours Post Exposure to Asbestos Decreases inflammatory cytokine secretion (IL-1β) (FIGS. 54A-54B). To evaluate SDG in blunting inflammatory cytokine secretion (IL-1β) in cells post asbestos exposure, female C57/Bl6 mice were injected with 2 mL of thioglycollate and peritoneal macrophages harvested after 3 days 2 million cells per well were plated in a 6 well plate and exposed to 20 μg/cm^2 asbestos. Cells were treated with 25 or 50 μM SDG (synthetic SDG) 3, 4, 6, or 8 hours post-asbestos exposure. Cells were harvested 24 hours post-asbestos exposure. Analysis performed on fresh supernatant samples.
as §2, with “(TNF-α)” for “(IL-1β)”, “55A-55B).” for “54A-54B).”, “days.” for “days”, “Cells were harvested 24 hours post-asbestos exposure. Analysis performed on fresh supernatant samples.” left out

[2] = Scavenging of γ-radiation-induced hypochlorite (APF/HPF fluorescence in PBS)
Experimental: The fluorescence of ROS probes APF and HPF in PBS was measured at excitation/emission at 490 nm/515 nm in presence of hypochlorite or after γ-radiation exposure. Data is expressed as relative fluorescence units (RFU).

mouse epithelial cells = experiment: BaP-induced ROS generation (redox-sensitive fluorescence dye); type: cell-based; details: 10 or 20 μM BaP; 0.1-5 μM SDG; 2 hours
Experimental: Exposure of murine epithelial cells to the tobacco and environmental carcinogen benzo-alpha-pyrene (BaP) induces damaging reactive oxygen species (ROS) as detected by a redox-sensitive fluorescence dye (FIG. 23). As early as 2 hours, post exposure to the carcinogen, a robust increase of fluorescence intensity indicates ROS generation in cells.

[3] = Hypochlorite-induced chlorination of 2-aminopurine (2-AP)
From the text: 2-AP in PBS was exposed to hypochlorite and fluorescence spectra recorded between 360-390 nm with the emission maximum at 374 nm. The % change in 2-AP calculated.

[4] = test system: murine primary lung fibroblasts; experiment: γ-H2AX foci immunostaining, fibroblasts; type: cell-based, mouse; details: SDG 50 μM 6 h prior IR; 2 Gy; irradiated control 30.0% at 30 min
Experimental: (§3) Fibroblasts and endothelial cells were isolated from C57/bl6 mouse. For fibroblast isolation, mouse lungs were harvested, minced, and incubated with dispase (2 mg/ml) for 45 minutes. Pieces were plated out and fibroblasts were cultured as described previously and used between passages 3 and 10. Pulmonary microvascular endothelial cells (PMVEC) were isolated from murine lungs as described previously. Briefly, freshly harvested mouse lungs were treated with collagenase followed by isolation of cells by adherence to magnetic beads coated with mAb to platelet endothelial cell adhesion molecule (PECAM). Epithelial cells (C10) cells were originally derived from a normal BALB/c mouse lung explant and are non-tumorigenic, contact-inhibited, and have alveolar type 2 cell features at early passage.
(§4) For immunostaining of γ-H2AX, cells were plated on glass coverslips (5,000 cells/coverslip), pre-treated (6 h) with 50 μM SDG and irradiated (2 Gy). At desired time interval, cells were fixed (4% para-formaldehyde), washed and blocked with PBST (PBS+0.1% TritonX-100 containing 5% goat serum, 1% BSA). Cells were incubated with γ-H2AX primary antibody (1:200) overnight at 4° C. followed by washing with PBST (3×5 min) and incubation with secondary antibody (Alexa Fluor® 488, Invitrogen, Calif., USA) for 1 hr at RT. Nuclei were counterstained with DAPI and visualized under fluorescence microscope.

[5] = test system: murine primary lung endothelial cells; experiment: γ-H2AX foci immunostaining, endothelial cells; type: cell-based, mouse; details: SDG 50 μM 6 h prior IR; 2 Gy; irradiated control 33.6% at 30 min
Experimental: as §3, §4

## COc1cc(C[C@@H](CO[C@@H]2O[C@H](CO)[C@@H](O)[C@H](O)[C@H]2O)[C@H](CO[C@@H]2O[C@H](CO)[C@@H](O)[C@H](O)[C@H]2O)Cc2ccc(O)c(OC)c2)ccc1O [SDG, secoisolariciresinol diglucoside]
[1]
  IL-1β levels: significantly decreased
  Malondialdehyde (MDA) levels, lipid peroxidation: significantly decreased
  Nitrite, marker for nitrosative stress: significantly decreased
  TNF-α levels: significantly decreased
[2]
  Ratio APF/HPF: decreased
[2]; 25 and 50 Gy
  ClO^− generation from radiation exposure: blunted
[2]; 50 Gy
  γ-radiation-induced APF and HPF fluorescence: dose-dependently decreased
[2]; 50 Gy, SDG dose response
  Initial slope for decrease of APF fluorescence: 1,816.30
  Initial slope for decrease of HPF fluorescence: 695.75
Mouse epithelial cells
  ROS: negligible levels
[3]; 10 μM hypochlorite, SDG pre-treatment 60 seconds
  Hypochlorite-induced decrease of 2-AP fluorescence, pre-treatment: prevented
[3]; SDG added +15 to +300 seconds after ClO^−
  Hypochlorite-induced 2-AP modification, post-treatment: significant recovery
[4]
  γ-H2AX positive cells: 22.1%±1.9
[5]
  γ-H2AX positive cells: 21.92%±2.88
